From the supplement of paper PMC10307832 come the findings set out here.

What all share (experiment): relative viability (nuclei count vs DMSO), 5 days (fraction); higher = more cells survive
Compound in one test: CC(C)CCN1c2nc(Nc3cc(F)c(O)c(F)c3)ncc2N(C)C(=O)C1C [BI-D1870]
The procedure, abridged: (§1)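 A plate was accepted only when its control CV was below 25% and the cells had doubled at least once. Viability is defined from nuclear counts as treated wells divided by vehicle wells, with the median taken across plates. That median covers lung cancer cell lines grown in 1536-well plates, dosed by pinning at five √10-spaced library-drug concentrations, and counted in MetaXpress from 4× Hoechst images after 5 days.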

Compound in the next test: O=c1ncccn1[C@@H]1O[C@H](CO)[C@@H](O)[C@H]1O [Zebularine]
The procedure, abridged:
as §1

Compound in the test “BI-D1870 + Alpelisib”: CC(C)CCN1c2nc(Nc3cc(F)c(O)c(F)c3)ncc2N(C)C(=O)C1C [BI-D1870] + Cc1nc(NC(=O)N2CCC[C@H]2C(N)=O)sc1-c1ccnc(C(C)(C)C(F)(F)F)c1 [Alpelisib] (partner 2 µM)
The procedure, abridged: (§2)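 The day after seeding in 1536-well plates, lung cancer cell lines were treated by pin tool with a single drug, or with a fixed anchor-drug dose together with five library-drug doses (not always all listed) in √10 steps. After 5 days, a combined fix-and-stain solution (final 0.05% Triton X-100, 1% formaldehyde, 1 ug/ml Hoechst) was added. Nuclei counted on 4× images gave relative viability as treated counts over vehicle counts, reported as the median of duplicate plates.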

Compound in the test “Zebularine + Pemetrexed”: O=c1ncccn1[C@@H]1O[C@H](CO)[C@@H](O)[C@H]1O [Zebularine] + Nc1nc2[nH]cc(CCc3ccc(C(=O)N[C@@H](CCC(=O)O)C(=O)O)cc3)c2c(=O)[nH]1 [Pemetrexed] (partner 0.2 µM)
The procedure, abridged:
as §2

HCC-44: the relative viability in the test with BI-D1870 (0.04 µM) stood at 1.04; in the test with BI-D1870 (0.1265 µM), 0.876; with BI-D1870 (0.4 µM), 0.989; with BI-D1870 (1.265 µM), 1.07; in the test with BI-D1870 (4 µM), 1.03; in the test with Zebularine (1 µM), 1.05. Besides, the relative viability stood at 1.02 with Zebularine (3.162 µM); 0.701 in the test with Zebularine (10 µM); 0.843 in the test with Zebularine (31.62 µM); 0.44 with Zebularine (100 µM); 0.911 with BI-D1870 + Alpelisib (first compound 0.04 µM); 0.817 with BI-D1870 + Alpelisib (first compound 0.1265 µM). Further, the relative viability with BI-D1870 + Alpelisib (first compound 0.4 µM) came to 0.846; with BI-D1870 + Alpelisib (first compound 1.265 µM) it was 0.695; with BI-D1870 + Alpelisib (first compound 4 µM), 0.595; with Zebularine + Pemetrexed (first compound 1 µM) it was 0.723; with Zebularine + Pemetrexed (first compound 3.162 µM), 0.625; with Zebularine + Pemetrexed (first compound 10 µM) it was 0.646. The results for the relative viability in the test with Zebularine + Pemetrexed (first compound 31.62 µM) and with Zebularine + Pemetrexed (first compound 100 µM) were 0.679 and 0.445, respectively.
As for HCC-78, the relative viability stood at 0.952 with BI-D1870 (0.04 µM); 1 with BI-D1870 (0.1265 µM); 0.97 in the test with BI-D1870 (0.4 µM); 1.16 with BI-D1870 (1.265 µM); 0.875 in the test with BI-D1870 (4 µM); 1.07 with Zebularine (1 µM). In addition, the relative viability with Zebularine (3.162 µM) turned out to be 0.945; with Zebularine (10 µM) it was 0.626; with Zebularine (31.62 µM), 0.916; with Zebularine (100 µM) it was 0.387; in the test with BI-D1870 + Alpelisib (first compound 0.04 µM) it was 0.323; in the test with BI-D1870 + Alpelisib (first compound 0.1265 µM), 0.279. In addition, the relative viability in the test with BI-D1870 + Alpelisib (first compound 0.4 µM) turned out to be 0.301; with BI-D1870 + Alpelisib (first compound 1.265 µM) it was 0.321; with BI-D1870 + Alpelisib (first compound 4 µM), 0.246; with Zebularine + Pemetrexed (first compound 1 µM), 0.88; with Zebularine + Pemetrexed (first compound 3.162 µM), 0.941; with Zebularine + Pemetrexed (first compound 31.62 µM), 0.882. The relative viability in the test with Zebularine + Pemetrexed (first compound 100 µM) came out at 0.978.
For HCC-366, the relative viability with BI-D1870 (0.04 µM) stood at 1.02; with BI-D1870 (0.1265 µM), 0.928; with BI-D1870 (0.4 µM), 0.995; with BI-D1870 (1.265 µM) it was 1.04; with BI-D1870 (4 µM), 0.951; with Zebularine (1 µM), 1.03. The relative viability is 0.995 with Zebularine (3.162 µM); 0.928 with Zebularine (10 µM); 0.856 with Zebularine (31.62 µM); 0.297 in the test with Zebularine (100 µM); 0.47 with BI-D1870 + Alpelisib (first compound 0.04 µM); 0.351 with BI-D1870 + Alpelisib (first compound 0.1265 µM). For the same cell line, the relative viability with BI-D1870 + Alpelisib (first compound 0.4 µM) was found to be 0.344; in the test with BI-D1870 + Alpelisib (first compound 1.265 µM) it was 0.514; with BI-D1870 + Alpelisib (first compound 4 µM), 0.359; in the test with Zebularine + Pemetrexed (first compound 1 µM), 0.168; in the test with Zebularine + Pemetrexed (first compound 3.162 µM), 0.179; with Zebularine + Pemetrexed (first compound 10 µM) it was 0.136. Further, the relative viability amounted to 0.192 in the test with Zebularine + Pemetrexed (first compound 31.62 µM) and 0.0894 in the test with Zebularine + Pemetrexed (first compound 100 µM).
For HCC-827, the relative viability with BI-D1870 (0.04 µM) was 1.05; with BI-D1870 (0.1265 µM), 1.05; with BI-D1870 (0.4 µM) it was 1.04; with BI-D1870 (1.265 µM) it was 1.03; with BI-D1870 (4 µM), 1.01; in the test with Zebularine (1 µM), 1.08. Besides, the relative viability with Zebularine (3.162 µM) amounted to 1.03; with Zebularine (10 µM) it was 0.851; with Zebularine (31.62 µM), 0.877; with Zebularine (100 µM), 0.47; in the test with BI-D1870 + Alpelisib (first compound 0.04 µM), 0.991; in the test with BI-D1870 + Alpelisib (first compound 0.1265 µM), 0.959. Moreover, the relative viability in the test with BI-D1870 + Alpelisib (first compound 0.4 µM) was found to be 0.916; with BI-D1870 + Alpelisib (first compound 1.265 µM), 0.965; with BI-D1870 + Alpelisib (first compound 4 µM), 0.907; with Zebularine + Pemetrexed (first compound 1 µM) it was 0.328; with Zebularine + Pemetrexed (first compound 3.162 µM) it was 0.254; in the test with Zebularine + Pemetrexed (first compound 10 µM), 0.229. The relative viability with Zebularine + Pemetrexed (first compound 31.62 µM) came out at 0.243; with Zebularine + Pemetrexed (first compound 100 µM) it was 0.235.
Consider HOP-62, for which the relative viability with BI-D1870 (0.04 µM) turned out to be 1.18; with BI-D1870 (0.1265 µM) it was 1.01; with BI-D1870 (0.4 µM), 0.965; in the test with BI-D1870 (1.265 µM), 1.03; with BI-D1870 (4 µM), 0.949; in the test with Zebularine (1 µM), 1.11. For the same cell line, the relative viability came out at 0.911 with Zebularine (3.162 µM); 0.564 with Zebularine (10 µM); 0.287 with Zebularine (31.62 µM); 0.213 with Zebularine (100 µM); 1.21 in the test with BI-D1870 + Alpelisib (first compound 0.04 µM); 1 with BI-D1870 + Alpelisib (first compound 0.1265 µM). The relative viability with BI-D1870 + Alpelisib (first compound 0.4 µM) was determined as 1.02; with BI-D1870 + Alpelisib (first compound 1.265 µM), 1.05; in the test with BI-D1870 + Alpelisib (first compound 4 µM), 1.2; with Zebularine + Pemetrexed (first compound 1 µM), 0.326; in the test with Zebularine + Pemetrexed (first compound 3.162 µM), 0.316; with Zebularine + Pemetrexed (first compound 10 µM), 0.239. The relative viability with Zebularine + Pemetrexed (first compound 31.62 µM) came out at 0.186; with Zebularine + Pemetrexed (first compound 100 µM), 0.139.
As to LC-2-ad, the relative viability with BI-D1870 (0.04 µM) stood at 1.08; in the test with BI-D1870 (0.1265 µM), 0.957; with BI-D1870 (0.4 µM) it was 1.02; in the test with BI-D1870 (1.265 µM), 1.01; with BI-D1870 (4 µM) it was 0.868; with Zebularine (1 µM) it was 1.02. The relative viability in the test with Zebularine (3.162 µM) was found to be 0.937; in the test with Zebularine (10 µM), 0.653; in the test with Zebularine (31.62 µM) it was 0.719; with Zebularine (100 µM), 0.355; with BI-D1870 + Alpelisib (first compound 0.04 µM), 0.962; in the test with BI-D1870 + Alpelisib (first compound 0.1265 µM), 0.836. The relative viability with BI-D1870 + Alpelisib (first compound 0.4 µM) was 0.849; with BI-D1870 + Alpelisib (first compound 1.265 µM), 0.855; with BI-D1870 + Alpelisib (first compound 4 µM) it was 0.701; in the test with Zebularine + Pemetrexed (first compound 1 µM) it was 0.276; with Zebularine + Pemetrexed (first compound 3.162 µM), 0.289; with Zebularine + Pemetrexed (first compound 10 µM), 0.27. Besides, the relative viability in the test with Zebularine + Pemetrexed (first compound 31.62 µM) came to 0.255; with Zebularine + Pemetrexed (first compound 100 µM) it was 0.259.
Take LCLC-97TM1: the relative viability is 1.3 with BI-D1870 (0.04 µM); 0.978 in the test with BI-D1870 (0.1265 µM); 0.756 with BI-D1870 (0.4 µM); 1.1 with BI-D1870 (1.265 µM); 0.841 with BI-D1870 (4 µM); 1.03 with Zebularine (1 µM). Besides, the relative viability with Zebularine (3.162 µM) was 0.913; with Zebularine (10 µM), 0.652; in the test with Zebularine (31.62 µM), 0.335; with Zebularine (100 µM), 0.143; in the test with BI-D1870 + Alpelisib (first compound 0.04 µM), 0.254; with BI-D1870 + Alpelisib (first compound 0.1265 µM), 0.218. Besides, the relative viability with BI-D1870 + Alpelisib (first compound 0.4 µM) came out at 0.219; with BI-D1870 + Alpelisib (first compound 1.265 µM), 0.276; with BI-D1870 + Alpelisib (first compound 4 µM), 0.188; with Zebularine + Pemetrexed (first compound 1 µM), 0.167; with Zebularine + Pemetrexed (first compound 3.162 µM) it was 0.172; with Zebularine + Pemetrexed (first compound 10 µM), 0.13. Further, the relative viability in the test with Zebularine + Pemetrexed (first compound 31.62 µM) was 0.146; in the test with Zebularine + Pemetrexed (first compound 100 µM), 0.0657.
